Measurements as given in patent US10682337B2, “Compositions and methods for treatment and prevention of pyrexia in horses” (Kindred Biosciences, Inc., priority 2015, dated 2020).

How the values were obtained:
Format in all cases: in vivo
[1] = oral bioavailability of metamizole in horses (plasma 4-MAA); conditions: four horses; 30 mg/kg; water slurry via nasogastric intubation vs IV Vetalgina; plasma 4-MAA up to 48 hours; FIG. 1
Procedure: The commercially available Vetalgina product (Intervet) for IV administration (sodium salt) was administered in accordance with the manufacturer's instructions. Plasma was collected prior to administration and at specified intervals for up to 48 hours. Horses underwent a washout period, and then were administered the active ingredient (metamizole sodium monohydrate) in a water slurry to the horses' stomach via nasogastric intubation. Plasma was collected again prior to […] administration and at specified intervals for up to 48 hours. Horses were treated with matched doses on a milligram per kilogram basis for both test articles. Plasma was assayed for the primary metabolite of metamizole sodium, 4-methylaminoantipyrine (4-MAA).

[2] = tested on: horses with clinical signs of infectious disease; assay: two-phase efficacy study of oral metamizole in mature horses
Procedure: A two-phase study to determine the efficacy of oral metamizole in mature horses was conducted as follows. In the first phase, 9 horses with clinical signs of infectious disease were enrolled.
In the second phase, 8 horses with clinical signs of infectious disease were enrolled.
The oral formulation of metamizole used for both phases was an aqueous formulation comprising 500 mg/ml metamizole sodium monohydrate, 10 mg/ml xanthan gum, and 100 mg/ml propylene glycol, and 15 mg/ml benzyl alcohol. The formulation was adjusted to pH 7.8 using sodium hydroxide.
For both phases, rectal temperature was monitored at pre-determined intervals. Horses were redosed based on rectal temperature and minimum dosing intervals up to five additional times, for a total of six doses. Fever was required for redose with metamizole.

[3] = tested on: horses with naturally occurring respiratory infections; assay: pilot efficacy study of orally administered metamizole in horses with fever; conditions: of 8 horses; oral gel 30 mg/kg; ≥2° F. decrease or ≤101.0° F. 6 hours following dose
Procedure: Metamizole, as an active ingredient, was formulated into a simple gel for oral administration and dosed at 30 mg/kg body weight. Eight horses with naturally occurring respiratory infections were provided. The temperatures of the horses were monitored. […] Horses were treated up to three times with an oral formulation of metamizole sodium. Rectal temperature was monitored to determine response to treatment. […] Pyrexia returned at timepoints appropriate for the drug's plasma residence time.

In the case of `Cc1c(N(C)CS(=O)(=O)O)c(=O)n(-c2ccccc2)n1C` [metamizole, [(2,3-dihydro-1,5-dimethyl-3-oxo-2-phenyl-1H-pyrazol-4-yl)methylamino] methanesulfonic acid], the “bioavailability, orally vs parenterally administered metamizole” value [1] is reported as “comparable bioavailability”.

In the case of `Cc1c(N(C)CS(=O)(=O)O)c(=O)n(-c2ccccc2)n1C` [metamizole sodium monohydrate], the Adverse events ([2]; 30 and 40 mg/kg oral, up to six doses) is reported as “consistent with the underlying infections required for enrollment”, the “horses defined as primary responders after Dose 1” value ([2]; Phase 2, 40 mg/kg oral) is reported as 7/8 and the “horses defined as primary responders after Dose 1” value ([2]; phase 1, 30 mg/kg oral) is reported as 7/9.

For `Cc1c(N(C)CS(=O)(=O)O)c(=O)n(-c2ccccc2)n1C` [metamizole sodium], the “horses with clinically significant improvement in rectal temperature” value [3] was 8.
